# Activity calls are given as the source filed them. No cut-off for these calls is given here.
# Columns and labels:
# [1] = biological target: T1, Transient receptor potential cation channel subfamily V member 1 (Homo sapiens, UniProt Q8NER1); assay: Antagonist activity at human TRPV1 expressed in CHOK1 cells assessed as inhibition of capsaicin-induced activity by FLIPR assay; assay type: functional, cell-based, CHO-K1
# [2] = biological target: T1, Transient receptor potential cation channel subfamily V member 1; assay: Antagonist activity at human TRPV1 expressed in CHOK1 cells assessed as inhibition of pH-induced activity by FLIPR assay; assay type: functional, cell-based, CHO-K1
# Rattus norvegicus [3] = assay: Toxicity in po dosed CCI-induced Sprague-Dawley rat neuropathic pain model assessed as decreased locomotion; assay type: organism-based; conditions: in vivo
# Rattus norvegicus [4] = assay: Toxicity in po dosed CCI-induced Sprague-Dawley rat neuropathic pain model assessed as sedation; assay type: organism-based; conditions: in vivo
# Rattus norvegicus [5] = assay: Analgesic activity in CCI-induced Sprague-Dawley rat neuropathic pain model assessed as reduction in paw withdrawal measured 30 mins after po administration; assay type: functional, organism-based
# [6] = biological target: T1, Transient receptor potential cation channel subfamily V member 1; assay: Antagonist activity at human TRPV1 expressed in CHOK1 cells assessed as inhibition of N-acetyldopamine-induced activity after 5 mins by FLIPR assay; assay type: functional, cell-based, CHO-K1
# [7] = biological target: T1, Transient receptor potential cation channel subfamily V member 1; assay: Antagonist activity at human TRPV1 expressed in CHOK1 cells assessed as inhibition of heat-induced activity after 5 mins by FLIPR assay; assay type: functional, cell-based, CHO-K1
# Mus musculus [8] = assay: Inhibition of capsaicin-induced hypothermia in NMRI mouse at 0.3 mg/kg, po administered 15 mins prior challenge; assay type: functional, organism-based; design: dose 0.3 mg/kg
# Rattus norvegicus [9] = assay: Analgesic activity in CCI-induced Sprague-Dawley rat neuropathic pain model assessed as reduction in paw withdrawal at 3.16 mg/kg, po after 45 mins; assay type: functional
# Rattus norvegicus [10] = assay: Analgesic activity in CCI-induced Sprague-Dawley rat neuropathic pain model assessed as reduction in paw withdrawal measured 45 mins after po administration; assay type: functional
# Mus musculus [11] = assay: Acute toxicity in C57BL/6J mouse assessed as hyperthermia at 1 mg/kg, po at 45 to 60 mins; conditions: in vivo
# Mus musculus [12] = assay: Acute toxicity in TRPV1 knockout mouse assessed as hyperthermia at 1 mg/kg, po at 45 to 60 mins; conditions: in vivo
# T1 sequence (Q8NER1 whole entry): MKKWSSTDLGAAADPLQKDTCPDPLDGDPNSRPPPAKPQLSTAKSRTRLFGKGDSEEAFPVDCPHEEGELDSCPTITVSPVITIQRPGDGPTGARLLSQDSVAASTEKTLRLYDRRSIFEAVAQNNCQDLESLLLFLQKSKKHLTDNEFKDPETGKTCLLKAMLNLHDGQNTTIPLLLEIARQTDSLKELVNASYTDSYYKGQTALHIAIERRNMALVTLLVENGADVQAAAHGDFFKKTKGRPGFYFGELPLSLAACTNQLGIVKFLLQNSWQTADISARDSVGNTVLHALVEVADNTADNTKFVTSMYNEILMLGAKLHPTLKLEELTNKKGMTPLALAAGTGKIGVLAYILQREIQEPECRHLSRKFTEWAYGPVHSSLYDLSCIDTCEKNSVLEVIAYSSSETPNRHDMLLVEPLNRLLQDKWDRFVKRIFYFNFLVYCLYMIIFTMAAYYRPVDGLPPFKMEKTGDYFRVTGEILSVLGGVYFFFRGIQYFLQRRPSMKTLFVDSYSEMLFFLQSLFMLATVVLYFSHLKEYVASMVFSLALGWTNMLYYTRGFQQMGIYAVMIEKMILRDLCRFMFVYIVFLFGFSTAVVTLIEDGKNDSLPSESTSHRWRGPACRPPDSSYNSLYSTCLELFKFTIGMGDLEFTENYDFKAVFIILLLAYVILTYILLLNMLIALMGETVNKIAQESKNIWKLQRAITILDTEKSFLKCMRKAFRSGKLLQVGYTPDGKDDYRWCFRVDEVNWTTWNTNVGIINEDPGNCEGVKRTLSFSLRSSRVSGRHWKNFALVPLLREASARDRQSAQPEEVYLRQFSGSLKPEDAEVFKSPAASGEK
Structure (SMILES),Ki ([1]; read-out: Ki),IC50 ([2]; read-out: IC50),other results
CC(C(=O)NCc1ccc(C(F)(F)F)nc1N1CCCCC1)c1ccc(NS(C)(=O)=O)c(F)c1 (racemic),0.43 nM,–,–
CC(C(=O)NCc1ccc(C(F)(F)F)nc1N1CCN(c2ncccc2Cl)CC1)c1ccc(NS(C)(=O)=O)c(F)c1 (racemic),–,117 nM,–
CC1CCN(c2nc(C(F)(F)F)ccc2CNC(=O)C(C)c2ccc(NS(C)(=O)=O)c(F)c2)CC1 (racemic),–,8.4 nM,–
O=C(/C=C/c1ccc(C(F)(F)F)nc1N1CCOCC1)Nc1ccc2cccnc2c1,1.2 nM,116 nM,–
O=C(/C=C/c1ccc(C(F)(F)F)nc1N1CCCCC1)Nc1ccc2cccnc2c1,4.4 nM,–,IC50 ([2]; cho-k1): Not Active
CC(C(=O)NCc1ccc(C(F)(F)F)nc1N1CCN(c2ccc(C(F)(F)F)cc2)CC1)c1ccc(NS(C)(=O)=O)c(F)c1 (racemic),2.3 nM,117 nM,–
CC1CCN(c2nc(C(F)(F)F)ccc2CNC(=O)[C@H](C)c2ccc(NS(C)(=O)=O)c(F)c2)CC1,9.8 nM,254 nM,–
CC(C(=O)NCc1ccc(C(F)(F)F)nc1)c1ccc(NS(C)(=O)=O)c(F)c1 (racemic),–,–,IC50 ([2]; cho-k1): Not Active
CC(C(=O)NCc1ccc(C(F)(F)F)nc1N1CCC(Cc2ccc(F)c(F)c2)CC1)c1ccc(NS(C)(=O)=O)c(F)c1 (racemic),0.2 nM,30 nM,–
CC1CCC(Nc2nc(C(F)(F)F)ccc2CNC(=O)C(C)c2ccc(NS(C)(=O)=O)c(F)c2)CC1 (racemic),27.2 nM,1130 nM,–
C[C@H](C(=O)NCc1ccc(C(F)(F)F)nc1N1CC[C@@H](OCc2ccccc2)C1)c1ccc(NS(C)(=O)=O)c(F)c1,1.4 nM,50 nM,–
CC(C(=O)NCc1ccc(C(F)(F)F)nc1N1CCC(Cc2cc(F)cc(F)c2)CC1)c1ccc(NS(C)(=O)=O)c(F)c1 (racemic),0.4 nM,24 nM,–
CC(C)(C)c1ccc(CNC(=S)NCc2ccc(NS(C)(=O)=O)c(F)c2)cc1,26 nM,–,IC50 ([2]; cho-k1): Not Active
C[C@H](C(=O)NCc1ccc(C(F)(F)F)nc1N1CCC[C@H]1CO)c1ccc(NS(C)(=O)=O)c(F)c1,–,–,IC50 ([2]; cho-k1): Not Active
C[C@H](C(=O)NCc1ccc(C(F)(F)F)nc1N1CCC[C@H]1C(=O)N(C)C)c1ccc(NS(C)(=O)=O)c(F)c1,–,–,IC50 ([2]; cho-k1): Not Active
CC(C(=O)NCc1ccc(C(F)(F)F)nc1N1CCCCCC1)c1ccc(NS(C)(=O)=O)c(F)c1 (racemic),0.8 nM,25.1 nM,–
CC(C(=O)NCc1ccc(C(F)(F)F)nc1NCc1cccnc1)c1ccc(NS(C)(=O)=O)c(F)c1 (racemic),–,–,IC50 ([2]; cho-k1): Not Active; Ki ([1]; cho-k1): Not Active
C[C@H](C(=O)NCc1ccc(C(F)(F)F)nc1N1CC[C@H](NC(=O)OC(C)(C)C)C1)c1ccc(NS(C)(=O)=O)c(F)c1,7.1 nM,737 nM,–
C[C@H](C(=O)NCc1ccc(C(C)(C)C)cc1)c1ccc(NS(C)(=O)=O)c(F)c1,20 nM,1210 nM,Activity (Rattus norvegicus [3]): Non-toxic; Activity (Rattus norvegicus [4]): Non-toxic; Activity (Rattus norvegicus [5]): Active; Ki [6]: 6.6 nM; IC50 [7]: 174 nM
CC(C(=O)NCc1ccc(C(F)(F)F)nc1N1CCC(C(=O)c2ccc(F)cc2)CC1)c1ccc(NS(C)(=O)=O)c(F)c1 (racemic),3.9 nM,990 nM,–
CC1CCN(c2nc(C(F)(F)F)ccc2CNC(=O)[C@@H](C)c2ccc(NS(C)(=O)=O)c(F)c2)CC1,0.2 nM,6.3 nM,Activity (Rattus norvegicus [3]): Non-toxic; Activity (Rattus norvegicus [4]): Non-toxic; Activity (Mus musculus [8]): Active; Emax at 3.16 mg/kg (Rattus norvegicus [9]): 60%; Activity (Rattus norvegicus [10]): Dose-dependent effect; ED50 (Rattus norvegicus [10]): 0.9 mg/kg; Ki [6]: 0.01 nM; IC50 [7]: 0.8 nM; Activity (Mus musculus [11]): Toxic; Activity (Mus musculus [12]): Non-toxic
CC(C(=O)NCc1ccc(C(F)(F)F)nc1N1CCC(CN(C)C)CC1)c1ccc(NS(C)(=O)=O)c(F)c1 (racemic),2.1 nM,426 nM,–
C[C@H](C(=O)NCc1ccc(C(F)(F)F)nc1N1CCC[C@H]1C(=O)OC(C)(C)C)c1ccc(NS(C)(=O)=O)c(F)c1,2.6 nM,209 nM,–
C[C@H](C(=O)NCc1ccc(C(F)(F)F)nc1N1CC[C@@H](N(C)C)C1)c1ccc(NS(C)(=O)=O)c(F)c1,101 nM,–,–
C[C@H](C(=O)NCc1ccc(C(F)(F)F)nc1N1CCCCC1)c1ccc(NS(C)(=O)=O)c(F)c1,–,46.7 nM,–
CC(C(=O)NCc1ccc(C(F)(F)F)nc1N1CCC(O)CC1)c1ccc(NS(C)(=O)=O)c(F)c1 (racemic),–,–,IC50 ([2]; cho-k1): Not Active; Ki ([1]; cho-k1): Not Active
CC1CCCN1c1nc(C(F)(F)F)ccc1CNC(=O)[C@@H](C)c1ccc(NS(C)(=O)=O)c(F)c1 (stereo not given in full),0.3 nM,–,–
Cc1ccc(CC2CCN(c3nc(C(F)(F)F)ccc3CNC(=O)C(C)c3ccc(NS(C)(=O)=O)c(F)c3)CC2)cc1 (racemic),0.2 nM,17 nM,–
C[C@H](C(=O)NCc1ccc(C(F)(F)F)nc1N1CC[C@H](N(C)C)C1)c1ccc(NS(C)(=O)=O)c(F)c1,103 nM,–,–
C[C@H](C(=O)NCc1ccc(C(F)(F)F)nc1N1CC[C@@H](NC(=O)OC(C)(C)C)C1)c1ccc(NS(C)(=O)=O)c(F)c1,11 nM,757 nM,–

# — ChEMBL document CHEMBL2176890, “2-(3-fluoro-4-methylsulfonylaminophenyl)propanamides as potent transient receptor potential vanilloid 1 (TRPV1) antagonists: structure-activity relationships of 2-amino derivatives in the N-(6-trifluoromethylpyridin-3-ylmethyl) C-region” (J Med Chem, 2012)
